Results taken from US7507727B2, “Substituted quinobenzoxazine analogs and methods of using thereof” (Cylene Pharmaceuticals, Inc., priority 2003, dated 2009).
Read-outs that look alike come from different tables or passages of the source.

Legend:
[1] = target: c-Myc template DNA (c-myc quadruplex); test: Quadruplex binding / stop assay (Taq polymerase arrest, capillary electrophoresis)
HeLa cells = test: MTS cell proliferation and/or cytotoxicity assay; format: cell-based, Human
Experimental: Cell culture. Human cervical epithelial cells (HeLa cells) were obtained from American Type Culture Collection (Manassas, Va.). Cells were grown in Eagle's minimum essential medium (MEM, Hyclone, Utah) supplemented with 2 mM Glutamine, 0.1 mM nonessential amino acid, 1 mM Na Pyruvate, 1.5 g/L NaHCO3, 50 mg/L gentamicin, and 10% fetal bovine serum (Hyclone, USA) in a humidified atmosphere of 5% CO2 at 37° C.
MTS assays. Antiproliferative effects of the compounds were tested by the CellTiter 96 AQueous assay (Promega, WI), which is a calorimetric assay for determining the number of viable cells. (See, e.g., Wang, L., et al., Methods Cell Sci (1996) 18:249-255). In one example, cells (4,500 cells/well) were seeded on 96 well flat bottom plates (Corning, N.Y.) in 100 μl of culture medium without any anticancer drug on day 0, and the culture medium was exchanged for that //contained anticancer drugs at various concentrations on day 1. After incubation for 3 days under normal growth conditions (on day 4), the monolayers were washed once in PBS, and the medium was switched to 100 μl of PBS in each of the 96 well plate. After mixing MTS and PMS at the ratio of 20:1, 20 μl of MTS/PMS solution was added to each of the 96 well plate and incubated for 4 hours in a humidified atmosphere of 5% CO2 at 37° C. The absorbance was read at 490 nm using FLUOstar Galaxy 96 well plate reader (BMG Labtechnologies, Germany). μM concentrations (MTS data) reported in Table 1 are concentrations at which 50% of antiproliferative cell response is seen.

[2] = read-out: Stop Data c-Myc μM, concentration at which 50% of the DNA was arrested (arrested:full-length 1:1)
[3] = Homo sapiens, HeLa, 72 h, concentration at which 50% of antiproliferative cell response is seen, 3 days incubation, read-out: MTS Data Hella
[4] = read-out: S DATA, Table 1D, stop assay data
[5] = Homo sapiens, HeLa, HeLa cells, MTS, read-out: Hela MTS
[6] = concentration at which 50% of antiproliferative cell response is seen, 3 days incubation, read-out: MTS Data Hella

IC50 [1, 2] [µM] | IC50 [1, 4] [µM] | SMILES | IC50 (HeLa cells; [3]) [µM] | IC50 (HeLa cells; [5]) [µM] | IC50 (HeLa cells; [6]) [µM]
0.18 | – | CN(C)CCCCNC(=O)c1cn2c3cc4c(cc3oc3c(NCCN5CCCC5)c(F)cc(c1=O)c32)c(=O)c1ccccc14 [compound 584] | 0.19 | – | –
0.18 | – | CN1CCCC1CCNC(=O)c1cn2c3cc4oc5cc([N+](=O)[O-])ccc5[nH]c4cc3oc3c(NCCC4CCCN4C)c(F)cc(c1=O)c32 (stereo not shown) [compound 572] | 4.8 | – | –
0.75 | – | CN1CCCC1CCNC(=O)c1cn2c3c(c(NCCC4CCCN4C)c(F)cc3c1=O)Oc1cc3c(cc1-2)oc1ccccc13 (stereo not shown) [compound 372] | 3.4 | – | –
0.9 | – | N[C@H]1CCN(c2c(F)cc3c(=O)c(C(=O)NCCN4CCCC4)cn4c3c2Oc2cc3ccccc3cc2-4)C1 [compound 341] | 0.28 | – | –
– | 0.18 | O=C(NCCN1CCCC1)c1cn2c3c(c(N4CC5CCCNC5C4)c(F)cc3c1=O)Oc1cc3ccccc3cc1-2 (stereo not shown) [compound 1635] | – | 0.3 | –
0.75 | – | CN1CCN(CCCNC(=O)c2cn3c4c(c(NCCN5CCCC5)c(F)cc4c2=O)Oc2cc4c(cc2-3)oc2ccccc24)CC1 [compound 365] | 3.8 | – | –
0.18 | – | CN1CCCC1CCNC(=O)c1cn2c3cc4c(cc3oc3c(N5CC[C@H](N)C5)c(F)cc(c1=O)c32)c(=O)c1ccccc14 (stereo partly shown) [compound 582] | 0.28 | – | –
0.375 | – | CN(C)CC(C)(C)CNC(=O)c1cn2c3c(c(N4CCC(N)C4)c(F)cc3c1=O)Oc1cc3ccccc3cc1-2 (stereo not shown) [compound 531] | 0.48 | – | –
0.375 | – | CN(C)CCCCNC(=O)c1cn2c3c(c(N4CCC(N)C4)c(F)cc3c1=O)Oc1cc3c(cc1-2)Cc1ccccc1-3 (stereo not shown) [compound 532] | 0.44 | – | –
0.375 | – | CCN(CC)CCCC(C)NC(=O)c1cn2c3c(c(N4CCC(N)C4)c(F)cc3c1=O)Oc1cc3ccccc3cc1-2 (stereo not shown) [compound 542] | 0.23 | – | –
0.75 | – | CN1CCCC1CCNC(=O)c1cn2c3c(c(NCCCN4CCOCC4)c(F)cc3c1=O)Oc1cc3c(cc1-2)oc1ccccc13 (stereo not shown) [compound 362] | 4 | – | –
0.75 | – | CN1CCN(CCCNc2c(F)cc3c(=O)c(C(=O)NCCC4CCCN4C)cn4c3c2Oc2cc3c(cc2-4)oc2ccccc23)CC1 (stereo not shown) [compound 363] | 3.8 | – | –
0.18 | – | CN1CCCC1CCNc1c(F)cc2c(=O)c(C(=O)NCCN3CCCC3)cn3c4cc5oc6cc([N+](=O)[O-])ccc6[nH]c5cc4oc1c23 (stereo not shown) [compound 571] | 4.8 | – | –
0.375 | – | CN1CCN(CC(=O)N[C@@H]2CCN(c3c(F)cc4c(=O)c(C(=O)NCCN5CCCC5)cn5c4c3Oc3cc4c(cc3-5)oc3ccccc34)C2)CC1 [compound 505] | 3.4 | – | –
0.5 | – | CN1CCCC1CCNC(=O)c1cn2c3c(c(N4CC[C@@H](NC(=O)CCN5CCCC5)C4)c(F)cc3c1=O)Oc1cc3c(cc1-2)oc1ccccc13 (stereo partly shown) [compound 483] | 3.2 | – | –
0.75 | – | CN(C)CCCCNC(=O)c1cn2c3c(c(N4CC[C@@H](NC(=O)CCN5CCN(C)CC5)C4)c(F)cc3c1=O)Oc1cc3c(cc1-2)oc1ccccc13 [compound 357] | 8.6 | – | –
0.18 | – | CN1CCCC1CCNC(=O)c1cn2c3cc4c(cc3oc3c(NCCN5CCCC5)c(F)cc(c1=O)c32)c(=O)c1ccccc14 (stereo not shown) [compound 575] | 2.1 | – | –
0.41 | – | CN1CCCC1CCNc1c(F)cc2c(=O)c(C(=O)NCCN3CCCC3)cn3c2c1Oc1c-3ccc2ccccc12 (stereo not shown) [compound 497] | 2.1 | – | –
0.5 | – | NCCCNC(=O)c1cn2c3c(c(N4CC[C@@H](N)C4)c(F)cc3c1=O)Oc1cc3ccccc3cc1-2 [compound 485] | 0.5 | – | –
– | 1.5 | CN1CCCC1CCNC(=O)c1cn2c3c(c(N)c(F)cc3c1=O)Oc1c-2ccc2ccccc12 (stereo not shown) [compound 1763] | – | 3.8 | –
– | 0.5 | CC1(C)CC(NC(=O)c2cn3c4c(c(N5CC6CCCNC6C5)c(F)cc4c2=O)Oc2cc4ccccc4cc2-3)CC(C)(C)N1 (stereo not shown) [compound 1642] | – | 0.18 | –
2.5 | – | CN1CCCC1CCNC(=O)c1cn2c3c(c(NC[C@H]4CCCO4)c(F)cc3c1=O)Oc1cc3ccccc3cc1-2 (stereo partly shown) [compound 38] | – | – | 0.26
0.75 | – | CN1CCCC1CCNC(=O)c1cn2c3c(c(NCCCN4CCOCC4)c(F)c(N)c3c1=O)Oc1cc3ccccc3cc1-2 (stereo not shown) [compound 380] | 1.8 | – | –
0.75 | – | CN(C)CCCCNC(=O)c1cn2c3c(c(NCCCCN(C)C)c(F)cc3c1=O)Oc1cc3c(cc1-2)oc1ccccc13 [compound 367] | 3.7 | – | –

IC50 [1, 2] [µM] | IC50 [1, 4] [µM] | SMILES | IC50 (HeLa cells; [3]) [µM] | IC50 (HeLa cells; [5]) [µM] | IC50 (HeLa cells; [6]) [µM]
1.75 | – | Nc1c(F)c(N2CCC(N)C2)c2c3c1c(=O)c(C(=O)O)cn3-c1cc3ccccc3cc1O2 (stereo not shown) [compound 5] | 7.2 | – | –
3 | – | CCN(CC)CCCC(C)NC(=O)c1cn2c3c(c(N4CCC(c5cnccn5)C4)ccc3c1=O)Oc1ccccc1-2 (stereo not shown) [compound 29] | 2 | – | –
0.1 | – | CN1CCCC1CCNC(=O)c1cn2c3cc4c(=O)c5ccccc5c(=O)c4cc3oc3c(NCCN4CCCC4)c(F)cc(c1=O)c32 (stereo not shown) [compound 592] | 3.8 | – | –
0.75 | – | N[C@@H]1CCN(c2c(F)cc3c(=O)c(C(=O)NCCCN4CCOCC4)cn4c3c2Oc2cc3ccccc3cc2-4)C1 [compound 386] | 0.34 | – | –
0.41 | – | CN(C)CCCCNc1c(F)cc2c(=O)c(C(=O)NCCC3CCCN3C)cn3c2c1Oc1c-3ccc2ccccc12 (stereo not shown) [compound 496] | 4 | – | –
0.25 | – | O=C(NCCN1CCOCC1)c1cn2c3c(c(N4CC5CCCNC5C4)c(F)cc3c1=O)Oc1cc3ccccc3cc1-2 (stereo not shown) [compound 566] | 0.03 | – | –
1.8 | – | CN1CCCC1CCNC(=O)c1cn2c3c(c(NCCCN4CCCC4=O)c(F)cc3c1=O)Oc1cc3ccccc3cc1-2 (stereo not shown) [compound 102] | 2.2 | – | –
0.375 | – | CN(C)CCCCNc1c(F)cc2c(=O)c(C(=O)NCCN3CCOCC3)cn3c4cc5c(cc4oc1c23)c(=O)c1ccccc15 [compound 518] | 2.2 | – | –
0.13 | – | O=C(NCCCN1CCOCC1)c1cn2c3cc4c(=O)c5ccccc5c(=O)c4cc3oc3c(NCCN4CCCC4)c(F)cc(c1=O)c32 [compound 591] | 3.3 | – | –
1.75 | – | CN(C)C1CCN(c2c(F)cc3c(=O)c(C(=O)NCCC4CCCN4C)cn4c3c2Oc2cc3ccccc3cc2-4)C1 (stereo not shown) [compound 104] | 2.8 | – | –
0.375 | – | CN1CCCC1CCNC(=O)c1cn2c3c(c(N4CCC(N)C4)c(F)cc3c1=O)Oc1cc3ccccc3cc1-2 (stereo not shown) [compound 540] | – | – | 0.27
– | 0.75 | CN1CCCC1CCNC(=O)c1cn2c3c(c(NCC4(O)CCCCC4)c(F)cc3c1=O)Oc1cc3ccccc3cc1-2 (stereo not shown) [compound 1665] | – | 0.24 | –
– | 2.6 | NC1CCN(c2c(F)cc3c(=O)c(C(=O)NCCN4CCCC4)cn4c3c2Oc2cc(Cl)ccc2-4)C1 (stereo not shown) [compound 1800] | – | 0.18 | –
0.75 | – | N[C@@H]1CCN(c2c(F)cc3c(=O)c(C(=O)NCCN4CCOCC4)cn4c3c2Oc2cc3ccccc3cc2-4)C1 [compound 390] | 0.24 | – | –
0.75 | – | O=C(CCNCCN1CCOCC1)N[C@@H]1CCN(c2c(F)cc3c(=O)c(C(=O)NCCN4CCCC4)cn4c3c2Oc2cc3c(cc2-4)oc2ccccc23)C1 [compound 358] | 5.7 | – | –
0.25 | – | N[C@@H]1CCN(c2c(F)cc3c(=O)c(C(=O)NCCC4CCCN4)cn4c3c2Oc2cc3c(cc2-4)oc2ccccc23)C1 (stereo partly shown) [compound 563] | 0.31 | – | –
1 | – | CC(C)NCCCNC(=O)c1cn2c3c(c(N4CCC(NC(=O)OC(C)(C)C)C4)c(F)cc3c1=O)Oc1cc3ccccc3cc1-2 (stereo not shown) [compound 312] | 1.9 | – | –
– | 0.375 | CN1CCCC1CCNC(=O)c1cn2c3c(c(NCCc4c[nH]cn4)c(F)cc3c1=O)Oc1cc3ccccc3cc1-2 (stereo not shown) [compound 1657] | – | 0.5 | –
– | 0.18 | CN(C)CCCCNC(=O)c1cn2c3c(c(N4CCC(N)C4)ccc3c1=O)Oc1cc3ccccc3cc1-2 (stereo not shown) [compound 1559] | – | 0.24 | –
0.25 | – | N[C@@H]1CCN(c2c(F)cc3c(=O)c(C(=O)NCCN4CCCC4)cn4c3c2Oc2cc3ccccc3cc2-4)C1 [compound 565] | 0.2 | – | –
– | 0.75 | CN1CCC(Nc2c(F)cc3c(=O)c(C(=O)NCCC4CCCN4C)cn4c3c2Oc2cc3ccccc3cc2-4)CC1 (stereo not shown) [compound 1690] | – | 0.31 | –
– | 0.85 | CN1CCC[C@H]1CCNC(=O)c1cn2c3c(c(N4CCC(c5cnccn5)C4)c(F)cc3c1=O)Oc1cc3ccccc3cc1-2 (stereo partly shown) [compound 1742] | – | 3.3 | –
0.44 | – | CN(C)CC(C)(C)CNC(=O)c1cn2c3c(c(N4CC5CCCNC5C4)c(F)cc3c1=O)Oc1cc3ccccc3cc1-2 (stereo not shown) [compound 493] | 0.4 | – | –
